Laboratory results taken from patent publication US20060264414A1, “Fluorous 2,2'-bipyridines and fluorinated biphasic sysems for ligand design” (The Board of Regents, University and Community College …, priority 2005, published 2006).
Like-named read-outs stand apart in the source and are kept apart here. Marks after values point to notes of the source that are not given here.

Tests used:
[1] = Cyclic voltammetry reduction potentials; type: physicochemical; conditions: THF; for ΔEp: scan rate 10 V/sec, TBAPF6; for E1/2: vs. SCE, 10 μm Pt ultramicroelectrode
Description: THF was found suitable for this study as 1-3 have sufficient solubility and the electrochemical potential window (+1.2 V to −3 V vs. SCE) extends to the potential range of interest.

[2] = in DMF, known values; cited from earlier work
[3] = Fluorous partition coefficient, CF3C6F11/toluene, GLC method; type: physicochemical; conditions: 1:1 v/v perfluoromethylcyclohexane and toluene
Description: Fluorous partition coefficients (FPCs) were obtained for 1-4 for a 1:1 v/v biphasic mixture of “fluorous” solvent perfluoromethylcyclohexane, CF3C6F11 and toluene.

[4] = value from ref. 13; cited from earlier work
[5] = test system: Breast Cancer Cells (DC4 and DB-46); assay: Survival studies (Clonogenic Assay); type: cell-based; conditions: 10 micromolar Pt agent, DC4 and DB-46 cells
Description: Plots are appended to this document that provide viable cells vs. concentration of Pt agent.

Molecule | ΔEp [1] | E1/2 [1] | reduction potential [2] | FPC = Cbpy(CF3C6F11)/Cbpy(toluene) [3] | other results
Cc1ccnc(-c2cc(C)ccn2)c1 [—CH3, 4,4′-dimethyl-2,2′-bipyridine] | 253 mV | −2.493 V | −2.68 V | no compound in the CF3C6F11 layer | 
FC(F)(F)C(F)(F)C(F)(F)C(F)(F)C(F)(F)C(F)(F)C(F)(F)C(F)(F)C(F)(F)C(F)(F)CCCc1ccnc(-c2cc(CCCC(F)(F)C(F)(F)C(F)(F)C(F)(F)C(F)(F)C(F)(F)C(F)(F)C(F)(F)C(F)(F)C(F)(F)F)ccn2)c1 [Ligand 4] |  |  |  | 11 | fi = fluorophilicity = ln[FPC] [3]: +2.4
c1ccc(-c2ccccn2)nc1 [—H, 2,2′-bipyridine] |  |  | −2.60 V |  | 
CCCCCCCCCc1ccnc(-c2cc(CCCCCCCCC)ccn2)c1 [—(CH2)8CH3] | 299 mV | −2.501 V |  | no compound in the CF3C6F11 layer | 
FC(F)(F)C(F)(F)C(F)(F)C(F)(F)C(F)(F)C(F)(F)C(F)(F)C(F)(F)CCCCc1ccnc(-c2cc(CCCCC(F)(F)C(F)(F)C(F)(F)C(F)(F)C(F)(F)C(F)(F)C(F)(F)C(F)(F)F)ccn2)c1 [—(CH2)4Rf8, 4,4′-di-[(CH2)4(CF2)7CF3]-2,2′-bipyridine] |  |  |  |  | FPC = Cbpy(CF3C6F11)/Cbpy(toluene) [4]: 0.67^c; fi = fluorophilicity = ln[FPC] [4]: −0.40^c
[4,4′-Bis(4,4,4-trifluorobutyl)-2,2′-bipyridine]PtCl2 [Complex 1] |  |  |  |  | colonies surviving / survival [5]: around 2%
